Results as given in US7915220B2, “Peptidomimetic agents from dextrorotatory amino acids as well as pharmaceutical agents that contain the latter for treatment of neurodegenerative diseases” (JSW-Research Forschungslabor GmbH, priority 2006, dated 2011).
Where a SMILES comes first, the peptide text is derived from it. [ ]: non-standard residue; d: D form.

What was measured:
[1] = Stability of peptides incubated with rat brain homogenate (RP-HPLC / LC-MS); assay type: in vitro ADME; conditions: for remaining at 0.25 h, 0.2 mM / remaining at 1 h, 0.2 mM / remaining at 3 h, 0.2 mM / remaining at 24 h, 0.2 mM: pH 7.6, 37° C.; for remaining at 0.25 h, 0.2 mM: 15 minutes, read-out: portion of the amount of sample used left after 15 Minutes; for remaining at 1 h, 0.2 mM: read-out: portion of the amount of sample used left after 1 Hour; for remaining at 3 h, 0.2 mM: read-out: portion of the amount of sample used left after 3 Hours; for remaining at 24 h, 0.2 mM: read-out: portion of the amount of sample used left after 24 Hours; for half-life at 0.2 mM: tris buffer pH 7.6, 37° C.
Description: An essential advantage of the peptidomimetic agents according to the invention, which consist of D-amino acids as well as glycine, is the higher stability compared to the degradation by various enzymes that occur in the body—in particular peptidases. For this reason, the stability of the nuclear sequence mimetic agent vGek was compared to that of the corresponding retroinverse peptide KEGV according to WO 03/082906 A, whereby the peptides together with a rat brain homogenate were incubated for 15 minutes as well as for 1, 3 and 24 hours.
To this end, freshly isolated rat brain was homogenized in tris buffer (pH 7.6) and used immediately. In each case, a portion of a 1 mmol peptide solution and four parts of the homogenate were incubated at 37° C. After the incubation, the decomposition of the enzymes was halted by adding 50 μl of 0.1 M HCl. Then, a denaturation of the proteins was carried out with methanol (volume ratio: 1:4) at −20° C. for 60 minutes. Then, it was centrifuged for 20 minutes at 4° C. and 29,000 g.
Finally, the samples were concentrated under vacuum and analyzed by means of RP-HPLC (liquid chromatography, with UV/vis detector, detection wavelength: 220 nm; solvent: (A) 0.1% TFA/water (A), 0.1% TFA in 80% ACN/water (B); column: Phenomenex Jupiter C18 (250×4 mm, 5 μm of 300 Å), flow rate: 1.2 ml/minute, gradients: 0 to 15% B after 30 minutes (KEGVOH), 0% isocratic B for 10 minutes, then at 0 to 15% B after 30 minutes (KEGVNH2), 0 to 15% B after 20 minutes (vGekNH2)).
As an alternative, LC-MS (Applied Biosystems 140C Microgradient System; solvent: 0.1% HCOOH/water (A), 0.1% HCOOH in 80% acetonitrile/water (B); column: Alltech Hypersil C18 (150×2.1 mm, 5 μm of 100 Å), flow rate: 0.15 ml/minute, gradient: 0 to 15% B after 20 minutes; detector: Finnigan TSQ-7000 Triple Quadrupole Mass Spectrometer, m/z Range; 10-1000, scan time: 1.0 second) was also used.

SHSY-5Y cells = assay: MTT test, injury of differentiated SHSY-5Y cells with pre-aggregated Aβ-1-42; assay type: cell-based
Description: To examine the action of the peptidomimetic agent according to the invention in a relevant biological system, injury tests were performed in cell cultures with Aβ-1-42 (β-amyloid). Differentiated SHSY-5Y cells were used as cell culture systems.
The cells that were still not differentiated were cultivated in 96-well plates at 37° C. in an atmosphere in DMEM/F12 (Cambrex) that contains 5% CO2 until confluence is completed. For differentiation, the following medium composition was selected: 10 μmol of All-Trans-retinoic acid, 10% FBS, 4 mmol of L-glutamine, 200 units/ml of penicillin, 200 μg/ml of streptomycin, 0.5% DMSO in MEM non-essential amino acids (e.g., Cambrex). After 8 days in the differentiation medium, 3×10^5 cells/cm^2 in the form of a monolayer were present.
Before the application, the test substances were irradiated for 10 minutes in a form already dissolved in culture medium. This medium contained 2% FBS (fetal bovine serum) and was free of phenol red, retinoic acid and DMSO.
Aβ-1-42 was pre-aggregated before the addition for 24 hours at room temperature while being shaken lightly. […]
Then, the medium was carefully emptied, and the formazan crystals that were produced were dissolved with a DMSO/ethanol solution (4:1). Finally, the color intensity obtained was measured at 550 nm in an ELISA reader. […]

[2] = Blood-brain barrier passage of tritiated vGek in rats (radioactivity in organs); assay type: in vivo
Description: The test was performed as follows:
Rats were injected with […] of tritiated vGek (vGek of specific activity: 34.0 Ci/mmol). 10, 30 and 60 minutes after the injection, the animals were anesthetized, and blood as well as a few organs were removed for examination and weighed. Depending on the organ, 50-250 mg of tissue was removed in a solvent and incubated at 60° C. for 2 hours. After cooling to room temperature, 200 μl of 30% H2O2 was added. Then, another incubation at 60° C. was carried out for 30 minutes. Finally, the radioactivity was determined with the aid of a scintillation measuring device.

Row | Compound | remaining at 0.25 h, 0.2 mM [1] | remaining at 1 h, 0.2 mM [1] | remaining at 3 h, 0.2 mM [1] | remaining at 24 h, 0.2 mM ([1]; 24 hours) | half-life at 0.2 mM [1] | other results
1 | CC(C)[C@H](NC(=O)CNC(=O)[C@H](CCC(=O)O)NC(=O)[C@@H](N)CCCCN)C(N)=O [KEGVNH2] (H-KEGV-NH2; N-terminus assumed) | 22% | 0% | 0% | 0% | < 0.25 h | –
2 | CC(C)[C@H](NC(=O)CNC(=O)[C@H](CCC(=O)O)NC(=O)[C@@H](N)CCCCN)C(=O)O [KEGVOH] (H-KEGV-OH; N-terminus assumed) | 14% | 0% | 0% | 0% | < 0.25 h | –
3 | CC(C)[C@@H](N)C(=O)NCC(=O)N[C@H](CCC(=O)O)C(=O)N[C@H](CCCCN)C(=O)O [vGek, Dval-gly-Dglu-Dlys] (H-[dV]G[dE][dK]-OH; N-terminus and C-terminus assumed) | – | – | – | – | – | influence on the survival of cells (toxicity of the peptide alone) (SHSY-5Y cells; 50 μmol vGek alone): no detectable influence on the survival of cells; stability above that of the corresponding peptide KEGV ([1]; in vitro): 2-3 orders of magnitude; highest measured value in the brain ([2]; injection of 2.94 mmol tritiated vGek): 1.33 pmol; passage through the blood-brain barrier ([2]; tritiated vGek): could overcome the blood-brain barrier
4 | CC(C)[C@@H](N)C(=O)NCC(=O)N[C@H](CCC(=O)O)C(=O)N[C@H](CCCCN)C(N)=O [vGekNH2] (H-[dV]G[dE][dK]-NH2; N-terminus assumed) | – | – | 70% | 50% | 20 to 24 h | detectability of peptide after 24 hours ([1]; 37° C., 24 hours): can be detected
5 | Aβ-1-42: amyloidogenic β-amyloid peptide with 42 amino acids, used pre-aggregated to damage cells | – | – | – | – | – | survival rate of SHSY-5Y cells (SHSY-5Y cells; 10 μmol of pre-aggregated Aβ-1-42 alone): 56%
